Measured values: the NIST ThermoML archive (doi:10.1016/j.jct.2007.11.009)

Experiment: xn = mol fraction of the nth substance listed
Details: Liquid, Vibrating tube method, x2 = 0

c1ccccc1 [benzene] + CCCCCCCC
mass density [kg/m3]
Details	298.15 K	308.15 K	318.15 K	328.15 K
100 kPa	873.5	862.9	852.3	841.5
2130 kPa	875.1	864.7	854.2	843.6
4150 kPa	876.7	866.4	856.1	845.6
6180 kPa	878.4	868.2	857.9	847.5
8210 kPa	879.9	869.9	859.7	849.5
10230 kPa	881.5	871.6	861.5	851.3
11250 kPa	882.3	872.4	862.4	852.3
12260 kPa	883.1	873.2	863.2	853.2
14290 kPa	884.6	874.8	865	855
16310 kPa	886.1	876.4	866.6	856.8
18340 kPa	887.6	878	868.3	858.6
20370 kPa	889.1	879.5	869.9	860.3
22390 kPa	890.5	881.1	871.6	862
24420 kPa	892	882.6	873.2	863.7
26450 kPa	893.4	884	874.7	865.3
28470 kPa	894.7	885.5	876.2	866.9
29490 kPa	895.4	886.2	877	867.8
30500 kPa	896.1	886.9	877.8	868.6
32530 kPa	897.5	888.4	879.2	870.1
34550 kPa	898.8	889.7	880.7	871.7
36580 kPa	900.1	891.1	882.1	873.1
38600 kPa	901.4	892.5	883.6	874.7
39620 kPa	902	893.2	884.3	875.4
